Values belong to the compound of their own block, whether it stands above or below them.
What was measured:
[1] = cited from earlier work; for Equivalent amount: dose equivalent for glucocorticoid therapy; for Hydrocortisone equivalent (1 mg of the glucocorticoid corresponds to the listed amount in mg of hydrocortisone): per 1 mg of the glucocorticoid
[2] = In vivo plasma cortisol profile in healthy volunteers with suppressed endogenous cortisol, oral mucosal administration; design: species or system human
Method: The in vivo experiments reported herein were carried out on healthy volunteers. At 6 pm and 11 pm the day before administration of the test composition, the endogenous cortisol secretion was suppressed by oral administration of 2 mg of betamethasone. The test composition was administered to healthy volunteers. The volunteers were in fasted state and were not allowed to take any food until noon. In the case a tablet is administered, it is ingested together with 200 ml of water. The test composition is administered between 8 am and 10 am on the day following the suppression of endogenous glucocorticoid secretion.
In vivo plasma profiles in humans, N=1 per composition
Dexamethasone suppression test, fasting state, otherwise as described in the paragraph denoted “Method”.
Two films were prepared essentially similar to Example 13—composition A. Film A contains 10 mg of hydrocortisone and film B contains 11.2 mg of hydrocortisone acetate.
The hydrocortisone compositions were tested in two human subjects after labial administration. The subjects had their endogenous glucocorticoid secretion suppressed by synthetic glucocorticoids. The plasma concentration of cortisol was monitored during 360 min after the labial administration, and the serum concentration time profiles from these two subjects are shown in FIGS. 6 and 7.
The compositions were tested after oral administration to two human subjects (see FIG. 8).

SMILES: C[C@]12C=CC(=O)C=C1CC[C@@H]1[C@@H]2[C@@H](O)C[C@@]2(C)[C@H]1CC[C@]2(O)C(=O)CO [Prednisolone]
Equivalent amount [1]: 5 mg
Hydrocortisone equivalent (1 mg of the glucocorticoid corresponds to the listed amount in mg of hydrocortisone) [1]: 4 mg

SMILES: C[C@]12C=CC(=O)C=C1CC[C@H]1[C@@H]3C[C@@H](O)[C@](O)(C(=O)CO)[C@@]3(C)C[C@H](O)[C@@]12F [Triamcinolone]
Equivalent amount [1]: 4 mg
Hydrocortisone equivalent (1 mg of the glucocorticoid corresponds to the listed amount in mg of hydrocortisone) [1]: 5 mg

SMILES: C[C@@H]1C[C@H]2[C@@H]3C[C@H](F)C4=CC(=O)C=C[C@]4(C)[C@H]3[C@@H](O)C[C@]2(C)[C@@]1(O)C(=O)CO [Paramethasone]
Equivalent amount [1]: 2 mg
Hydrocortisone equivalent (1 mg of the glucocorticoid corresponds to the listed amount in mg of hydrocortisone) [1]: 10 mg

SMILES: CC(=O)OCC(=O)[C@@]1(O)CC[C@H]2[C@@H]3CCC4=CC(=O)CC[C@]4(C)[C@H]3C(=O)C[C@@]21C [Cortisone acetate]
Equivalent amount [1]: 25 mg
Hydrocortisone equivalent (1 mg of the glucocorticoid corresponds to the listed amount in mg of hydrocortisone) [1]: 0.8 mg

SMILES: CC(=O)OCC(=O)[C@@]1(O)CC[C@H]2[C@@H]3CCC4=CC(=O)CC[C@]4(C)[C@H]3[C@@H](O)C[C@@]21C [hydrocortisone acetate]
Suitability for an immediate release composition (in vivo plasma profiles) ([2]; Example 11 thin-layer films, humans, N=1 per composition, fasting state, FIGS. 1-3): does not seem to be suitable for an immediate release composition

Time at which first measured plasma concentration was attained ([2]; Example 13 films, 10 mg hydrocortisone, labial administration, two human subjects): 10 to 15 min
Rate and extent of mucosal uptake ([2]; Example 13 films, 10 mg hydrocortisone, labial administration, two human subjects, FIGS. 6 and 7): high
SMILES: C[C@]12CCC(=O)C=C1CC[C@@H]1[C@@H]2[C@@H](O)C[C@@]2(C)[C@H]1CC[C@]2(O)C(=O)CO [Hydrocortisone]
Equivalent amount [1]: 20 mg
Hydrocortisone equivalent (1 mg of the glucocorticoid corresponds to the listed amount in mg of hydrocortisone) [1]: 1 mg

From US9925139B2, “Pharmaceutical compositions for acute glucocorticoid therapy” (ACUCORT AB, priority 2004, dated 2018)
